Measurements from PubChem BioAssay (NCI).
Values joined by “and” are separate entries in the source; they are usually repeats but may differ in a detail not shown here. Identical values can stand only once.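 Protocol summary: plate cells (96-well), add compound at 5 concentrations, incubate 48 h, interpolate endpoints linearly. GI50 marks 50% less growth. TGI marks complete inhibition of growth.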

How the values were obtained:
Test in all cases: growth of human tumour cells (NCI), 48 h
[1] = system: SNB-75 CNS
[2] = system: A549 NSCLC
[3] = system: SR leukemia
[4] = system: COLO 205 colon
[5] = system: SN12C renal
[6] = system: HCT-15 colon
[7] = system: CCRF-CEM leukemia
[8] = system: HCC-2998 colon
[9] = system: MDA-MB-435
[10] = system: ACHN renal

CCN1CCN(C(c2ccc(C(F)(F)F)cc2)c2ccc3cccnc3c2O)CC1 (centres undefined)
GI50 [1]: 1.84 µM
TGI [1]: 17 µM
GI50 [2]: 1.31 µM
TGI [2]: 12.1 µM
GI50 [3]: 0.835 µM
TGI [3]: 11 µM
GI50 [4]: 3.35 µM
TGI [4]: 13.1 µM
GI50 [5]: 2.27 µM
TGI [5]: 15.3 µM
GI50 [6]: 3.74 µM
TGI [6]: 17.6 µM
GI50 [7]: 1.45 µM
TGI [7]: 7.85 µM
GI50 [8]: 0.88 µM
TGI [8]: 12.2 µM
GI50 [9]: 3.76 µM
TGI [9]: 17.8 µM
GI50 [10]: 3.04 µM
TGI [10]: 11.2 µM

O=C(CNc1ccc(Cl)cc1)Nc1ccc(-c2nc3ccccc3s2)cc1
GI50 [1]: 3.39 µM
TGI [1]: 14.8 µM
GI50 [2]: 8.1 µM
TGI [2]: 27.4 µM
GI50 [3]: 1.43 µM
TGI [3]: > 24 µM
GI50 [4]: 3.49 µM
TGI [4]: 10.2 µM
GI50 [5]: 3.07 µM
TGI [5]: 10.5 µM
GI50 [6]: 1.84 µM
TGI [6]: 5.32 µM
GI50 [7]: 0.859 µM
TGI [7]: > 100 µM
GI50 [8]: 2.12 µM
TGI [8]: 4.24 µM
GI50 [9]: 3.91 µM
TGI [9]: 16.6 µM
GI50 [10]: 5.81 µM
TGI [10]: 12.6 µM

COc1ccc(C(C)=O)cc1N1C(=O)C2C(C1=O)C1(c3ccccc3)C(=O)C2(c2ccccc2)C(c2ccc(C)cc2)=C1c1ccc(C)cc1 (centres undefined)
GI50 [1]: > 100 µM
TGI [1]: > 100 µM
GI50 [2]: > 100 µM
TGI [2]: > 100 µM
GI50 [3]: > 100 µM
TGI [3]: > 100 µM
GI50 [4]: > 100 µM
TGI [4]: > 100 µM
GI50 [5]: > 100 µM
TGI [5]: > 100 µM
GI50 [6]: > 100 µM
TGI [6]: > 100 µM
GI50 [7]: > 100 µM
TGI [7]: > 100 µM
GI50 [8]: > 100 µM
TGI [8]: > 100 µM
GI50 [9]: > 100 µM
TGI [9]: > 100 µM
GI50 [10]: > 100 µM
TGI [10]: > 100 µM

CCN(CC)CCC(CNc1ccnc2cc(Cl)ccc12)c1ccc(OC)cc1 (centres undefined)
GI50 [1]: 3.39 µM and 2.35 µM
TGI [1]: 17.3 µM and 7.84 µM
GI50 [2]: 16.3 µM and 11.3 µM
TGI [2]: 32.5 µM and 26.1 µM
GI50 [3]: 2.31 µM and 2.04 µM
TGI [3]: 8.35 µM and 7.34 µM
GI50 [4]: 1.9 µM and 1.34 µM
TGI [4]: 4.3 µM and 2.95 µM
GI50 [5]: 12.9 µM and 11.4 µM
TGI [5]: 34.3 µM and 37.8 µM
GI50 [6]: 3.06 µM and 3.51 µM
TGI [6]: 12.3 µM and 16.5 µM
GI50 [7]: 13.1 µM and 2.77 µM
TGI [7]: 55.9 µM and 28.7 µM
GI50 [8]: 3.5 µM and 2.44 µM
TGI [8]: 16.2 µM and 6.32 µM
GI50 [9]: 1.91 µM and 1.65 µM
TGI [9]: 4.12 µM and 3.71 µM
GI50 [10]: 5.24 µM and 2.77 µM
TGI [10]: 19.1 µM and 9.6 µM

COc1cc(N(CCC#N)CCC#N)ccc1/C(N=Nc1ccc([N+](=O)[O-])cc1)=N/NC(=O)c1cc(Br)ccc1O
GI50 [1]: 28.4 µg/mL
TGI [1]: 83.6 µg/mL
GI50 [2]: 44.4 µg/mL
TGI [2]: 140 µg/mL
GI50 [3]: 44.8 µg/mL
TGI [3]: > 150 µg/mL
GI50 [4]: 24 µg/mL
TGI [4]: 45.9 µg/mL
GI50 [5]: 53.4 µg/mL
TGI [5]: > 150 µg/mL
GI50 [6]: 25.6 µg/mL
TGI [6]: 68.2 µg/mL
GI50 [7]: 48.5 µg/mL
TGI [7]: > 150 µg/mL
GI50 [8]: 40.9 µg/mL
TGI [8]: 78.7 µg/mL
GI50 [9]: 52.2 µg/mL
TGI [9]: > 150 µg/mL
GI50 [10]: 39.6 µg/mL
TGI [10]: 131 µg/mL

N#Cc1c(NN)n(C2OC(CO)C(O)C2O)c2ncnc(N)c12 (centres undefined)
GI50 [1]: 0.388 µM
TGI [1]: 9.56 µM
GI50 [2]: 0.0353 µM
TGI [2]: > 100 µM
GI50 [3]: 0.0272 µM
TGI [3]: 0.0815 µM
TGI [4]: 0.0424 µM
GI50 [5]: 0.151 µM
TGI [5]: > 47.5 µM
GI50 [6]: 0.0198 µM
GI50 [7]: 0.13 µM
TGI [7]: 0.605 µM
GI50 [8]: 0.292 µM
TGI [8]: 2.41 µM
GI50 [9]: 0.104 µM
TGI [9]: 0.916 µM
GI50 [10]: 0.0385 µM

CCCCCCNC(=O)c1cc(NCc2cc(O)ccc2O)ccc1O
GI50 [1]: 4.63 µM
TGI [1]: 21.1 µM
GI50 [2]: 23.5 µM
TGI [2]: 71.5 µM
GI50 [3]: 2.88 µM
TGI [3]: > 100 µM
GI50 [4]: 10.8 µM
TGI [4]: 28.6 µM
GI50 [5]: 4.75 µM
TGI [5]: 17.4 µM
GI50 [6]: 2.16 µM
TGI [6]: 7.35 µM
GI50 [7]: 0.409 µM
TGI [7]: 46.5 µM
GI50 [8]: 16.1 µM
TGI [8]: 31 µM
GI50 [9]: 9.48 µM
TGI [9]: 22.1 µM
GI50 [10]: 4.02 µM
TGI [10]: 15.7 µM

O=C1/C(=C/c2ccc(Br)cc2)COc2ccc(O)c(O)c21
GI50 [1]: 1.23 µM
TGI [1]: 3.01 µM
GI50 [2]: 1.77 µM
TGI [2]: 6.77 µM
GI50 [3]: 0.452 µM
TGI [3]: > 100 µM
GI50 [4]: 1.53 µM
TGI [4]: 3.18 µM
GI50 [5]: 0.617 µM
TGI [5]: 2.32 µM
GI50 [6]: 0.302 µM
TGI [6]: 1.51 µM
GI50 [7]: 0.462 µM
TGI [7]: > 100 µM
GI50 [8]: 1.54 µM
TGI [8]: 3.03 µM
GI50 [9]: 0.427 µM
TGI [9]: 1.59 µM
GI50 [10]: 0.828 µM
TGI [10]: 2.09 µM

O=C1c2cccc(NCCCNCCO)c2C(=O)c2cccc(NCCCNCCO)c21
GI50 [1]: 0.912 µM and 2.44 µM
TGI [1]: 2.58 µM and 6.58 µM
TGI [2]: 7.34 µM and 4.62 µM
GI50 [3]: 2.56 µM and 0.532 µM
TGI [3]: 6.25 µM and 7.33 µM
TGI [4]: 2.67 µM and 3.78 µM
TGI [5]: 6 µM and 5.31 µM
TGI [6]: 19.8 µM and 23.3 µM
TGI [7]: 7.09 µM and 6.97 µM
TGI [8]: 2.4 µM and 2.13 µM
TGI [9]: 3.06 µM
TGI [10]: 5.71 µM and 10.4 µM

CCn1c(-c2nonc2N)nc2c(C#CC(C)(C)O)nc(OC[C@H](N)c3ccccc3)cc21
GI50 [1]: 0.926 µM
TGI [1]: 4.65 µM
GI50 [2]: 3.69 µM
TGI [2]: 7.45 µM
GI50 [3]: 6.24 µM
TGI [3]: 16.3 µM
GI50 [4]: 3.52 µM
TGI [4]: 7 µM
GI50 [5]: 3.67 µM
TGI [5]: 7.38 µM
GI50 [6]: 2.53 µM
TGI [6]: 6.73 µM
GI50 [7]: 3.65 µM
TGI [7]: 24.9 µM
GI50 [8]: 3.74 µM
TGI [8]: 7.59 µM
GI50 [9]: 4.79 µM
TGI [9]: 9.42 µM
GI50 [10]: 2.6 µM
TGI [10]: 5.78 µM
